In patent publication US20020111274A1, “1-alkyl-3-[1-(substituted phenyl) benzotriazol-6-yl] uracils” (BASF Aktiengesellschaft, priority 2000, published 2002):

What was measured:
Set-up in all cases: scale not given here
ABUTH Velvetleaf [1] = experiment: Postemergence herbicidal evaluation, ABUTH; type: in vivo, Abutilon theophrasti, Medic.; conditions: postemergence spray, rated about two-three weeks after treatment
In short: (§1)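 Two-week-old seedlings sprayed postemergence with compound in 80/20 acetone/water plus 1.0% methylated seed oil, at about 0.006–0.400 kg/ha, through a nozzle at 40 psi. Plants kept under greenhouse conditions and visually rated about two–three weeks after treatment; ratings from repeat tests averaged.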

AMBEL Ragweed, Common [2] = experiment: Postemergence herbicidal evaluation, AMBEL; type: in vivo, Ambrosia artemisifolia, L.; conditions: postemergence spray, rated about two-three weeks after treatment
In short: as §1

CASOB Sicklepod [3] = experiment: Postemergence herbicidal evaluation, CASOB; type: in vivo, Cassia obtusifolia, L.; conditions: postemergence spray, rated about two-three weeks after treatment
In short: as §1

[4] = tested on: CHEAL Lambsquarters, Common; experiment: Postemergence herbicidal evaluation, CHEAL; type: in vivo, Chenopodium album, L.; conditions: postemergence spray, rated about two-three weeks after treatment
In short: as §1

ECHOG Barnyardgrass [5] = experiment: Postemergence herbicidal evaluation, ECHOG; type: in vivo, Echinochloa crus-galli, (L.) Beau; conditions: postemergence spray, rated about two-three weeks after treatment
In short: as §1

GALAP Galium [6] = experiment: Postemergence herbicidal evaluation, GALAP; type: in vivo, Galium aparine; conditions: postemergence spray, rated about two-three weeks after treatment
In short: as §1

[7] = tested on: IPOHE Morningglory, Ivyleaf; experiment: Postemergence herbicidal evaluation, IPOHE; type: in vivo, Ipomoea hederacea, (L.) Jacq.; conditions: postemergence spray, rated about two-three weeks after treatment
In short: as §1

SETVI Foxtail, Green [8] = experiment: Postemergence herbicidal evaluation, SETVI; type: in vivo, Setaria viridis, (L.) Beau; conditions: postemergence spray, rated about two-three weeks after treatment
In short: as §1

GLXMAW Soybean, Williams [9] = experiment: Postemergence herbicidal evaluation, GLXMAW; type: in vivo, Glycine max, (L.) Merr. cv Williams; conditions: postemergence spray, rated about two-three weeks after treatment
In short: as §1

[10] = tested on: TRZAWR Wheat, Winter, cv Riband; experiment: Postemergence herbicidal evaluation, TRZAWR; type: in vivo, Triticum aestivum; conditions: postemergence spray, rated about two-three weeks after treatment
In short: as §1

ORYSAT Rice, Tebonnet [11] = experiment: Postemergence herbicidal evaluation, ORYSAT; type: in vivo, Oryza sativa, (L.); conditions: postemergence spray, rated about two-three weeks after treatment
In short: as §1

ZEAMX Corn, Field [12] = experiment: Postemergence herbicidal evaluation, ZEAMX; type: in vivo, Zea mays, L. (Sammel-Bezeichnung); conditions: postemergence spray, rated about two-three weeks after treatment
In short: as §1

ABUTH Velvetleaf [13] = experiment: Preemergence herbicidal evaluation, ABUTH; type: in vivo, Abutilon theophrasti, Medic.; conditions: preemergence
In short: (§2)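 Seeds mixed with potting soil were planted on about one inch of soil in cups, then sprayed with the test compound in aqueous acetone at roughly 0.013 to 0.800 kg per hectare. Plants were kept under standard greenhouse care and injury was rated four to five weeks after treatment.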

AMBEL Ragweed, Common [14] = experiment: Preemergence herbicidal evaluation, AMBEL; type: in vivo, Ambrosia artemisifolia, L.; conditions: preemergence
In short: as §2

CASOB Sicklepod [15] = experiment: Preemergence herbicidal evaluation, CASOB; type: in vivo, Cassia obtusifolia, L.; conditions: preemergence
In short: as §2

[16] = tested on: CHEAL Lambsquarters, Common; experiment: Preemergence herbicidal evaluation, CHEAL; type: in vivo, Chenopodium album, L.; conditions: preemergence
In short: as §2

ECHOG Barnyardgrass [17] = experiment: Preemergence herbicidal evaluation, ECHOG; type: in vivo, Echinochloa crus-galli, (L.) Beau; conditions: preemergence
In short: as §2

GALAP Galium [18] = experiment: Preemergence herbicidal evaluation, GALAP; type: in vivo, Galium aparine; conditions: preemergence
In short: as §2

[19] = tested on: IPOHE Morningglory, Ivyleaf; experiment: Preemergence herbicidal evaluation, IPOHE; type: in vivo, Ipomoea hederacea, (L.) Jacq.; conditions: preemergence
In short: as §2

SETVI Foxtail, Green [20] = experiment: Preemergence herbicidal evaluation, SETVI; type: in vivo, Setaria viridis, (L.) Beau; conditions: preemergence
In short: as §2

GLXMAW Soybean, Williams [21] = experiment: Preemergence herbicidal evaluation, GLXMAW; type: in vivo, Glycine max, (L.) Merr. cv Williams; conditions: preemergence
In short: as §2

[22] = tested on: TRZAWR Wheat, Winter, cv Riband; experiment: Preemergence herbicidal evaluation, TRZAWR; type: in vivo, Triticum aestivum; conditions: preemergence
In short: as §2

ORYSAT Rice, Tebonnet [23] = experiment: Preemergence herbicidal evaluation, ORYSAT; type: in vivo, Oryza sativa, (L.); conditions: preemergence
In short: as §2

ZEAMX Corn, Field [24] = experiment: Preemergence herbicidal evaluation, ZEAMX; type: in vivo, Zea mays, L. (Sammel-Bezeichnung); conditions: preemergence
In short: as §2

Structure (SMILES): CC(C)c1ccc(-n2nnc3cc(F)c(-n4c(=O)cc(C(F)(F)F)n(C)c4=O)cc32)cc1 [Example 21]
- Postemergence herbicidal rating ABUTH (ABUTH Velvetleaf [1]; 0.008 kg/ha): 9.0
- Postemergence herbicidal rating ABUTH (ABUTH Velvetleaf [1]; 0.016 kg/ha): 9.0
- Postemergence herbicidal rating ABUTH (ABUTH Velvetleaf [1]; 0.032 kg/ha): 9.0
- Postemergence herbicidal rating ABUTH (ABUTH Velvetleaf [1]; 0.062 kg/ha): 9.0
- Postemergence herbicidal rating AMBEL (AMBEL Ragweed, Common [2]; 0.008 kg/ha): 2.0
- Postemergence herbicidal rating AMBEL (AMBEL Ragweed, Common [2]; 0.016 kg/ha): 9.0
- Postemergence herbicidal rating AMBEL (AMBEL Ragweed, Common [2]; 0.032 kg/ha): 9.0
- Postemergence herbicidal rating AMBEL (AMBEL Ragweed, Common [2]; 0.062 kg/ha): 9.0
- Postemergence herbicidal rating CASOB (CASOB Sicklepod [3]; 0.008 kg/ha): 0.0
- Postemergence herbicidal rating CASOB (CASOB Sicklepod [3]; 0.016 kg/ha): 0.0
- Postemergence herbicidal rating CASOB (CASOB Sicklepod [3]; 0.032 kg/ha): 1.0
- Postemergence herbicidal rating CASOB (CASOB Sicklepod [3]; 0.062 kg/ha): 2.0
- Postemergence herbicidal rating CHEAL ([4]; 0.008 kg/ha): 8.0
- Postemergence herbicidal rating CHEAL ([4]; 0.016 kg/ha): 4.0
- Postemergence herbicidal rating CHEAL ([4]; 0.032 kg/ha): 9.0
- Postemergence herbicidal rating CHEAL ([4]; 0.062 kg/ha): 9.0
- Postemergence herbicidal rating ECHCG (ECHOG Barnyardgrass [5]; 0.008 kg/ha): 0.0
- Postemergence herbicidal rating ECHCG (ECHOG Barnyardgrass [5]; 0.016 kg/ha): 0.0
- Postemergence herbicidal rating ECHCG (ECHOG Barnyardgrass [5]; 0.032 kg/ha): 0.0
- Postemergence herbicidal rating ECHCG (ECHOG Barnyardgrass [5]; 0.062 kg/ha): 0.0
- Postemergence herbicidal rating GALAP (GALAP Galium [6]; 0.008 kg/ha): 2.0
- Postemergence herbicidal rating GALAP (GALAP Galium [6]; 0.016 kg/ha): 4.0
- Postemergence herbicidal rating GALAP (GALAP Galium [6]; 0.032 kg/ha): 4.0
- Postemergence herbicidal rating GALAP (GALAP Galium [6]; 0.062 kg/ha): 9.0
- Postemergence herbicidal rating IPOHE ([7]; 0.008 kg/ha): 9.0
- Postemergence herbicidal rating IPOHE ([7]; 0.016 kg/ha): 9.0
- Postemergence herbicidal rating IPOHE ([7]; 0.032 kg/ha): 6.0
- Postemergence herbicidal rating IPOHE ([7]; 0.062 kg/ha): 9.0
- Postemergence herbicidal rating SETVI (SETVI Foxtail, Green [8]; 0.008 kg/ha): 0.0
- Postemergence herbicidal rating SETVI (SETVI Foxtail, Green [8]; 0.016 kg/ha): 0.0
- Postemergence herbicidal rating SETVI (SETVI Foxtail, Green [8]; 0.032 kg/ha): 5.0
- Postemergence herbicidal rating SETVI (SETVI Foxtail, Green [8]; 0.062 kg/ha): 5.0
- Postemergence herbicidal rating GLXMAW (GLXMAW Soybean, Williams [9]; 0.008 kg/ha): 4.5
- Postemergence herbicidal rating GLXMAW (GLXMAW Soybean, Williams [9]; 0.016 kg/ha): 5.0
- Postemergence herbicidal rating GLXMAW (GLXMAW Soybean, Williams [9]; 0.032 kg/ha): 5.5
- Postemergence herbicidal rating GLXMAW (GLXMAW Soybean, Williams [9]; 0.062 kg/ha): 5.5
- Postemergence herbicidal rating TRZAWR ([10]; 0.008 kg/ha): 3.5
- Postemergence herbicidal rating TRZAWR ([10]; 0.016 kg/ha): 4.0
- Postemergence herbicidal rating TRZAWR ([10]; 0.032 kg/ha): 4.0
- Postemergence herbicidal rating TRZAWR ([10]; 0.062 kg/ha): 4.0
- Postemergence herbicidal rating ORYSAT (ORYSAT Rice, Tebonnet [11]; 0.008 kg/ha): 3.0
- Postemergence herbicidal rating ORYSAT (ORYSAT Rice, Tebonnet [11]; 0.016 kg/ha): 3.5
- Postemergence herbicidal rating ORYSAT (ORYSAT Rice, Tebonnet [11]; 0.032 kg/ha): 3.5
- Postemergence herbicidal rating ORYSAT (ORYSAT Rice, Tebonnet [11]; 0.062 kg/ha): 3.5
- Postemergence herbicidal rating ZEAMX (ZEAMX Corn, Field [12]; 0.008 kg/ha): 4.5
- Postemergence herbicidal rating ZEAMX (ZEAMX Corn, Field [12]; 0.016 kg/ha): 4.5
- Postemergence herbicidal rating ZEAMX (ZEAMX Corn, Field [12]; 0.032 kg/ha): 4.5
- Postemergence herbicidal rating ZEAMX (ZEAMX Corn, Field [12]; 0.062 kg/ha): 5.0
- ABUTH herbicidal rating (ABUTH Velvetleaf [13]; rate 0.016 kg/ha): 0.0
- ABUTH herbicidal rating (ABUTH Velvetleaf [13]; rate 0.032 kg/ha): 4.5
- ABUTH herbicidal rating (ABUTH Velvetleaf [13]; rate 0.062 kg/ha): 6.0
- ABUTH herbicidal rating (ABUTH Velvetleaf [13]; rate 0.125 kg/ha): 9.0
- AMBEL herbicidal rating (AMBEL Ragweed, Common [14]; rate 0.016 kg/ha): 0.0
- AMBEL herbicidal rating (AMBEL Ragweed, Common [14]; rate 0.032 kg/ha): 3.0
- AMBEL herbicidal rating (AMBEL Ragweed, Common [14]; rate 0.062 kg/ha): 3.5
- AMBEL herbicidal rating (AMBEL Ragweed, Common [14]; rate 0.125 kg/ha): 7.5
- CASOB herbicidal rating (CASOB Sicklepod [15]; rate 0.016 kg/ha): 0.0
- CASOB herbicidal rating (CASOB Sicklepod [15]; rate 0.032 kg/ha): 0.0
- CASOB herbicidal rating (CASOB Sicklepod [15]; rate 0.062 kg/ha): 1.5
- CASOB herbicidal rating (CASOB Sicklepod [15]; rate 0.125 kg/ha): 2.0
- CHEAL herbicidal rating ([16]; rate 0.016 kg/ha): 9.0
- CHEAL herbicidal rating ([16]; rate 0.032 kg/ha): 9.0
- CHEAL herbicidal rating ([16]; rate 0.062 kg/ha): 9.0
- CHEAL herbicidal rating ([16]; rate 0.125 kg/ha): 9.0
- ECHCG herbicidal rating (ECHOG Barnyardgrass [17]; rate 0.016 kg/ha): 0.0
- ECHCG herbicidal rating (ECHOG Barnyardgrass [17]; rate 0.032 kg/ha): 0.0
- ECHCG herbicidal rating (ECHOG Barnyardgrass [17]; rate 0.062 kg/ha): 1.0
- ECHCG herbicidal rating (ECHOG Barnyardgrass [17]; rate 0.125 kg/ha): 3.5
- GALAP herbicidal rating (GALAP Galium [18]; rate 0.016 kg/ha): 0.0
- GALAP herbicidal rating (GALAP Galium [18]; rate 0.032 kg/ha): 0.0
- GALAP herbicidal rating (GALAP Galium [18]; rate 0.062 kg/ha): 0.0
- GALAP herbicidal rating (GALAP Galium [18]; rate 0.125 kg/ha): 0.0
- IPOHE herbicidal rating ([19]; rate 0.016 kg/ha): 0.0
- IPOHE herbicidal rating ([19]; rate 0.032 kg/ha): 1.5
- IPOHE herbicidal rating ([19]; rate 0.062 kg/ha): 2.0
- IPOHE herbicidal rating ([19]; rate 0.125 kg/ha): 3.5
- SETVI herbicidal rating (SETVI Foxtail, Green [20]; rate 0.016 kg/ha): 0.0
- SETVI herbicidal rating (SETVI Foxtail, Green [20]; rate 0.032 kg/ha): 2.0
- SETVI herbicidal rating (SETVI Foxtail, Green [20]; rate 0.062 kg/ha): 6.5
- SETVI herbicidal rating (SETVI Foxtail, Green [20]; rate 0.125 kg/ha): 9.0
- GLXMAW herbicidal rating (GLXMAW Soybean, Williams [21]; rate 0.016 kg/ha): 0.0
- GLXMAW herbicidal rating (GLXMAW Soybean, Williams [21]; rate 0.032 kg/ha): 0.0
- GLXMAW herbicidal rating (GLXMAW Soybean, Williams [21]; rate 0.062 kg/ha): 0.5
- GLXMAW herbicidal rating (GLXMAW Soybean, Williams [21]; rate 0.125 kg/ha): 1.0
- TRZAWR herbicidal rating ([22]; rate 0.016 kg/ha): 0.0
- TRZAWR herbicidal rating ([22]; rate 0.032 kg/ha): 0.0
- TRZAWR herbicidal rating ([22]; rate 0.062 kg/ha): 0.0
- TRZAWR herbicidal rating ([22]; rate 0.125 kg/ha): 1.0
- ORYSAT herbicidal rating (ORYSAT Rice, Tebonnet [23]; rate 0.016 kg/ha): 0.0
- ORYSAT herbicidal rating (ORYSAT Rice, Tebonnet [23]; rate 0.032 kg/ha): 0.0
- ORYSAT herbicidal rating (ORYSAT Rice, Tebonnet [23]; rate 0.062 kg/ha): 0.0
- ORYSAT herbicidal rating (ORYSAT Rice, Tebonnet [23]; rate 0.125 kg/ha): 0.0
- ZEAMX herbicidal rating (ZEAMX Corn, Field [24]; rate 0.016 kg/ha): 0.0
- ZEAMX herbicidal rating (ZEAMX Corn, Field [24]; rate 0.032 kg/ha): 0.0
- ZEAMX herbicidal rating (ZEAMX Corn, Field [24]; rate 0.062 kg/ha): 1.0
- ZEAMX herbicidal rating (ZEAMX Corn, Field [24]; rate 0.125 kg/ha): 3.5
